Consider ten compounds from patent US5635518A, “N-substituted azaheterocyclic carboxylic acids and esters thereof” (Novo Nordisk A/S, priority 1993, dated 1997).

The structures appear in SMILES notation. Structures can show the parent of a compound that is named as a salt.

One experiment has as its system [^3 H]-GABA uptake. Put plainly: in vitro inhibition of [3H]-GABA uptake, rat cortical tissue homogenate (method of Fjalland). It is filed as biochemical, Male wistar rat. The note with it: 40 mM tris HCl pH 7.5, 60 minutes at 30° C. How it is done: Values for in vitro inhibition of [^3 H]-GABA uptake for the invention compounds were assessed essentially by the method of Fjalland (Acta Pharmacol. Toxicol. 1978, 42, 73-76). Male wistar rat cortical tissue was gently homogenized by hand using a glass/PTFE homogenizer in 10 volumes of 0.32M sucrose. Incubation was performed in a 40 mM tris HCl buffer (pH 7.5 at 30° C.) containing […], 4 mM MgSO4, […] and 10 mM glucose, for 60 minutes at 30° C. Values for inhibition of GABA uptake for some representative compounds are recorded in Table I.
The IC50 is the concentration needed to halve the response being measured. Low values mean higher potency, high ones lower potency. On to `O=C(O)[C@@H]1CCCN(CCOc2ccccc2)C1` [Example 1, (R)-1-(2-Phenoxyethyl)-3-piperidinecarboxylic acid hydrochloride], for which the IC50 worked out at 64 µM.

On to `O=C(O)[C@@H]1CCCN(CCCCOc2ccccc2)C1` [Example 2, (R)-1-(4-Phenoxy-1-butyl)-3-piperidinecarboxylic acid hydrochloride], for which the IC50 worked out at 24 µM. Compared with the last compound, the IC50 is about 2.7-fold lower.

With `O=C(O)[C@@H]1CCCN(CCOc2ccccc2Cc2ccccc2)C1` [Example 3, (R)-1-(2-(2-Benzylphenoxy)ethyl)-3-piperidinecarboxylic acid hydrochloride], the IC50 is 6.7 µM.

`O=C(O)[C@@H]1CCCN(CCOc2cccc(-c3ccccc3)c2)C1` [Example 4, (R)-1-(2-(3-Phenylphenoxy)ethyl)-3-piperidinecarboxylic acid hydrochloride] displayed an IC50 of 5.6 µM. This IC50 and that of the compound before are within 1.5-fold of each other.

As for `O=C(O)[C@@H]1CCCN(CCOc2ccccc2-c2ccccc2)C1` [Example 5, (R)-1-(2-(2-Phenylphenoxy)ethyl)-3-piperidinecarboxylic acid hydrochloride], half-maximal inhibition (IC50) required 5.6 µM.

The next experiment deals with GABA uptake.
Test: not given
The note with it: from the synaptic cleft into presynaptic nerve terminals and glial cells; cited from earlier work.
For `O=C(O)C1CCCNC1` (stereo not shown) [3-piperidine-carboxylic acid], the “inhibitor of GABA uptake” value was “well-known and potent inhibitor of GABA uptake”.

For a further experiment, the system named is GABA uptake.
Test: not given
The note with it: oral; Yunger, L. M. et al., J. Pharm. Exp. Ther. 1984, 228, 109; cited from earlier work.
Regarding `O=C(O)C1CCCN(CCC=C(c2ccccc2)c2ccccc2)C1` (stereo not shown) [SK&F 89976A, N-(4,4-diphenyl-3-buten-1-yl)nipecotic acid], the “orally active inhibitor of GABA uptake” value was “orally active inhibitors of GABA uptake”.

With `O=C(O)C1=CCCN(CCC=C(c2ccccc2)c2ccccc2)C1` [SK&F 100330A, N-(4,4-diphenyl-3-buten-1-yl)guvacine], the “orally active inhibitor of GABA uptake” value was “orally active inhibitors of GABA uptake”.

With `O=C(O)CC1CCN(CCC=C(c2ccccc2)c2ccccc2)C1` (stereo not drawn) [SK&F 100561, N-(4,4-diphenyl-3-buten-1-yl)-homo-β-proline], the “orally active inhibitor of GABA uptake” value is “orally active inhibitors of GABA uptake”.

For the compound `O=C(O)C1CCCN(CCC=C(c2ccccc2)c2cccs2)C1` (stereo not shown) [SK&F 100604J, N-(4-phenyl-4-(2-thienyl)-3-buten-1-yl)nipecotic acid], the “orally active inhibitor of GABA uptake” value is reported as “orally active inhibitors of GABA uptake”.
